The source of these data is patent US20140086827A1, “Serum S100B And Uses Thereof” (THE CLEVELAND CLINIC FOUNDATION, priority 2011, published 2014).

Entries after “also recorded” stand apart in the source; their conditions may differ. Where two headings read alike, the source gives them in different places.

Assay [1] has as its system pilocarpine-induced SE. The assay is described as follows: Pilocarpine-induced status epilepticus in rats (EEG, Racine's scale, mortality). Format: in vivo, rat. The settings on record: for time to onset of SE: rats that developed SE. As for the experimental part: Rats (male Sprague-Dawley 225-250 g) were injected with methylscopolamine (0.5 mg/kg, i.p., Sigma-Aldrich) and 30 minutes after with pilocarpine (340 mg/Kg, Sigma-Aldrich). Data obtained from a total of 45 rats was analyzed (see also FIG. 14B). Development of seizure and status epilepticus was evaluated by behavioral (Racine's scale) and EEG assessment. […] IL-RA data included here are relative to [Marchi N., et al. (2009) Neurobiol Dis 33: 171-181]. IL-RA was administrated in the tail vein (30 μg/kg) 2 hours before scopolamine/pilocarpine treatment.
Note that blood samples were taken at baseline, after each treatment and immediately before (or at onset) of status epilepticus (SE), as evaluated by EEG and behavioral (Racine's Scale) assessments. This methodology has been used in the past to evaluate the presence of BBB damage and inflammatory process preceding seizure onset [Uva L., et al. (2008) Neuroscience 151: 303-312].
Stereotactic electrode implantation was performed in rats under isofluorane anaesthesia, using the Kopf stereotactic frame. Approximately, half of the rats used were implanted. Four stainless steel screws (MX-0090-2, Small Parts Inc., Miami, Fla.) were placed bilaterally on the dura mater of the fronto-parietal cortex. A prefabricated Pinnacle pre-amplifier was connected to the screws. The system has three bio-potential channels—2 EEG and 1 EMG. Prefabricated head implants (Pinnacle Inc., USA) ensured accurate electrode positioning and reliable, robust contacts. Cable artifacts are eliminated by pre-amplification of the EEG and EMG waveforms at the animal's head. EEG data were sampled a rate of 200 Hz. All data are transferred via a USB connection to a PC. Rats were left unrestrained for 2 weeks to recovery from surgery before EEG recordings were performed. Each rat was kept in a separate cage under 12-hours dark-light cycles with free access to food and water. Origin Microcal 7.0 and Diadem (National Instruments) was used in conjunction to the acquisition system for data analysis (e.g., time joint frequency analysis).

For assay [2], the system named is CD3+ T-lymphocytes. The assay is described as follows: FACS analysis of circulating T-lymphocytes in rat blood. Conditions: after dexamethasone treatment, rats. The class given is in vivo. As for the experimental part:
(§1) The schedule of blood sampling is illustrated in FIG. 14A. Blood was collected from the tail vein using a fixed catheter (Venisystem, Abbocath, 22 G, 300-500 μl/sample). For FACS analysis, 150 μL of whole blood were incubated with a combination of specific antibodies recognizing T-cell subpopulation (CD3+). In particular mouse anti-rat CD8a-FITC, CD3-R-PE and CD4-PE-Cy5 (BD-Pharmingen) were added (2 μL, 5 μL and 5 μL respectively) to blood samples. Blood samples were analyzed by the FACS-Core facility at the Cleveland Clinic. IL-1β ELISA-tests was purchased from Pierce Biotechnology Inc. and performed as described by the vendor.

The subject of assay [3] is drug-resistant epileptic seizures. The assay is described as follows: Add-on glucocorticosteroid or ACTH treatment in pediatric drug resistant epilepsy (review of clinical data). The settings on record: for occurrence of seizures (seizure burden vs baseline): add-on treatment, pediatric drug resistant epilepsy, 53 treatments. The class given is in vivo, human. The method, then:
The study was conducted according to the Declaration of Helsinki Criteria and to the procedures for compassionate drug administration approved by the Ethic Committees of Carlo Besta Institute (Milan, Italy). Oral informed consent from was obtained from parents by specialized neurologists. Administration of GCs was considered compassion care since all patients had intractable life threatening seizures. The clinical data of 43 patients (Table 4) of the Carlo Besta Neurological Institute (Milan, Italy) was reviewed. […] Patients with a history of epileptic syndromes known to respond to steroids (i.e., West, Lennox-Gastaut, Landau-Kleffner and Rasmussen encephalitis) as well as patients affected by documented inflammatory brain disease were excluded. All the subjects received steroid treatment on an in-patient basis.
Patients received GCs or ACTH therapy because of one of the following: 1) >50% increase in seizure frequency; 2) development of non-convulsive status epilepticus; 3) presence of epilepsia partialis continua (EPC). Before GCs or ATCH treatment, patients were evaluated by a team of neurologists, physiologists, and underwent EEG and routine laboratory examinations. Antiepileptic treatments were maintained during the steroid course (Table 4).
Steroidal treatment was, when successful, repeated in case of seizure recurrence. […] GCs or ATCH therapy was considered successful when: 1) seizure frequency decreased by 50%; 2) status epilepticus was stopped; 3) or when epilepsia partialis continua (EPC) was stopped/reduced enough to allow voluntary movement in the affected body district. Duration of treatment was limited to acute dosing, which was repeated when the initial response was beneficial. The effects of length of treatments and efficacy/toxicity of chronic use are not presented herein, since this study design only addressed a proof of principle use of steroids in pediatric epilepsy.

In assay [4] the test system is seizures. Conditions: drug-resistant children, Araki 2006; cited from earlier work.
The test system of assay [5] is IL-1β. Nature of the assay: Serum IL-1β ELISA in rats. Format: in vivo, rat. Conditions: dexamethasone treatment. The method, then:
as §1

For assay [6], the system named is blood-brain barrier. Conditions: IL-RA pre-treatment; previously reported; cited from earlier work.
Assay [7] relates to pilocarpine-induced SE. The settings on record: data from Marchi 2009, cited from earlier work.
[8] abbreviates: dexamethasone pre-treatment, vs pilocarpine alone.

On to `C[C@@H]1C[C@H]2[C@@H]3CCC4=CC(=O)C=C[C@]4(C)[C@@]3(F)[C@@H](O)C[C@]2(C)[C@@]1(O)C(=O)CO` [dexamethasone], for which, in assay [1] (setting [8]), the “time to onset of SE” value is listed as “significantly delayed”; the “early EEG burst clusters (time-joint frequency analysis)” value was “reduced in amplitude and frequency”. For the same compound, the “time to onset of SE” value in assay [1] (dexamethasone pre-treatment, vs pilocarpine alone, listed as Dexa) is on record as “delayed”. The “mortality associated with pilocarpine SE (twelve hours)” value in assay [1] (dexamethasone pre-treatment, seizures not stopped with barbiturates) is recorded as “significantly decreased; also recorded: abolishes mortality; also recorded: reduced mortality; also recorded: abolished”. Besides, the “effects of single dosage of 1 mg/day on pilocarpine seizures” value in assay [1] (single dosage of 1 mg/day) is listed as “did not exert any discernable effects”. In assay [2], the “number of circulating CD3+ T-lymphocytes” value is “drastic reduction; also recorded: drastic decrease” and the “relative percentage of CD8+ subpopulation among CD3+ cells” value is recorded as “significantly affected”. The “occurrence of seizures (seizure burden vs baseline)” value in assay [3] is reported as “significantly reduced”. In addition, the “MRI FLAIR hyperintensity” value in assay [3] (patient after dexamethasone treatment, concurrent with seizure reduction) was “decrease in FLAIR hyperintensity”. In addition, the “seizure frequency vs untreated patients” value in assay [4] was “reduced seizure frequency”. Moreover, the “serum IL1-β levels” value in assay [5] is given as “reduced”. Besides, in assay [5] (listed as Dexamethasone), the “serum IL1-β levels” value is listed as “significantly reduced”.

On to “IL-RA: IL-1 receptor antagonist, data from Marchi 2009”, for which the “pilocarpine-induced BBB damage” value in assay [6] is “prevents BBB damage”. Moreover, the “early EEG burst clusters (time-joint frequency analysis)” value in assay [7] (IL1-RA pre-treatment) was “reduced in amplitude and frequency”. In addition, the “number of rats developing SE / seizure occurrence” value in assay [7] (IL-RA 30 μg/kg tail vein 2 hours before scopolamine/pilocarpine) is recorded as “reduces seizure occurrence”. Moreover, in assay [7] (IL-RA pre-treatment), the “mortality associated with pilocarpine seizures (twelve hours)” value is “decreased” and the “time to onset of SE” value is given as “delayed”.

Take `C[C@]12CCC(=O)C=C1CC[C@@H]1[C@@H]2[C@@H](O)C[C@@]2(C)[C@H]1CC[C@]2(O)C(=O)CO` [hydrocortisone]: the “blood-brain barrier function and seizure frequency in epileptic patients receiving anti-inflammatory therapy” value in assay [3] (epileptic patients, clinical dosage) is recorded as “comparable effects”.

With “adrenocorticotropic hormone (SYSMEHFRWGKPVGKKRRPVKVYPNGAEDESAEAFPLEF; Corticotropin; UniProt P01189 138-176, looked up) [ACTH]”, the “occurrence of seizures (seizure burden vs baseline)” value in assay [3] is listed as “significantly reduced”.
